The nature of the data set: gradient 5% acetonitrile 3 min, to 50% in 2 min, to 85% in 15 min, held 3 min, 100 µL/min. The following applies: column: Zorbax Extend-C18 2.1 x 50 mm; eluents: water / acetonitrile, 0.1% formic acid. In short, it runs like this: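 Mixtures of ~100 pure standards were chromatographed on a Zorbax Extend-C18 column (2.1 × 50 mm, 1.8 μm) at 100 μL/min using water and acetonitrile, each with 0.1% formic acid. Detection used a quadrupole time-of-flight mass spectrometer in positive and negative ionization mode, and data collection spanned 3 months. Retention time was obtained from adduct peaks picked computationally and each checked manually.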
For `Cc1ccc(NC(=O)C2(C)Oc3cccnc3NC2=O)cc1C` (stereo not drawn), the RP-LC retention time is 760 s.

Take `Oc1ccc(Cl)cc1C1CC(c2ccc(Cl)cc2)=NC2(CCN(Cc3ccccc3)CC2)N1` (stereo not drawn): the RP-LC retention time was 791 s.

As for `Cc1cccc2nnc(N3CCN(C(=O)c4cccs4)CC3)n12`, the RP-LC retention time came out at 618 s.

Consider `O=C1C2N=NN(Cc3nc(-c4ccc(Br)cc4)no3)C2C(=O)N1c1ccccc1` (stereo not drawn), for which the RP-LC retention time worked out at 1030 s.

`O=C(Cn1c(=O)oc2ccccc21)N1CCC2(CC1)NCCc1c2[nH]c2ccccc12` came in with an RP-LC retention time of 597 s.

Take `CCOc1ccc2cccc(NC(=O)Cc3cccs3)c2n1`: the RP-LC retention time is 1130 s.

`CC1(c2nc(C3CC3)no2)CCCN(C(=O)c2n[nH]c3ccccc23)C1` (stereo not drawn) came in with an RP-LC retention time of 781 s.

With `CC(C)Cn1nc2c(S(=O)(=O)N3CCOCC3)cccn2c1=O`, the RP-LC retention time worked out at 707 s.

Compound `c1ccc(N2CCN(c3nnc(-n4cccc4CN4CCN(c5ccccn5)CC4)s3)CC2)cc1` showed an RP-LC retention time of 675 s.

The compound `N#Cc1ccc(CN2CCC(F)(F)C(COCc3cccnc3)C2)cc1` (stereo not drawn) gave an RP-LC retention time of 575 s.

`COc1cccc(Cn2c(=O)c3sccc3n(Cc3nc(-c4ccccc4Cl)no3)c2=O)c1` gave an RP-LC retention time of 1080 s.

For `O=C(NCc1ccc2c(c1)OCO2)c1csc(NS(=O)(=O)c2cccs2)n1`, the RP-LC retention time amounted to 721 s.

On to `O=C(CSCc1ccccc1)NCC1(CO)CC1`, for which the RP-LC retention time was determined as 660 s.

The compound `Cc1ccc(C(=O)N2CCC3(CC2)N(C)C(=O)CS3(=O)=O)s1` displayed an RP-LC retention time of 614 s.

Compound `CC(=O)Nc1ccc(-n2cnc(C(=O)N3CCN(c4cc(C)ccc4C)CC3)c2)nc1` showed an RP-LC retention time of 790 s.

`Cc1coc2cc3oc(=O)c(CC(=O)N[C@H](Cc4c[nH]c5ccccc45)C(=O)O)c(C)c3cc12` yielded an RP-LC retention time of 772 s.

As for `COCCN1C(=O)CCc2cc(NS(=O)(=O)c3ccccc3F)ccc21`, the RP-LC retention time was 726 s.

As for `Cc1ccc(-c2ccc(=O)n(Cc3noc(C(=O)NCCN4CCC(C)CC4)n3)n2)cc1`, the RP-LC retention time amounted to 677 s.

`CCn1ncc(NC(=O)c2ccc(C)cc2)c(N2CCOCC2)c1=O` gave an RP-LC retention time of 816 s.

In turn, `CC1=C(C(=O)Nc2ccc(C(=O)NCCCN3CCN(C4CCCCC4)CC3)cc2)SCCO1` showed an RP-LC retention time of 576 s.

Compound `O=c1c2cc(-c3cccs3)nn2cnn1Cc1nc(-c2ccccc2Cl)no1` yielded an RP-LC retention time of 1040 s.

With `Cc1ccccc1CN1CCC(CNS(=O)(=O)c2ccc3c(c2)CCCC(=O)N3)CC1`, the RP-LC retention time came out at 616 s.

In turn, `Cc1cc(NC(=O)CSc2nnc(CNC(=O)c3c(F)cccc3Cl)o2)no1` registered an RP-LC retention time of 657 s.

In turn, `COc1ccc2c(CCNC(=O)C(C)C)c[nH]c2c1` yielded an RP-LC retention time of 706 s.

The compound `Cc1cc(F)ccc1NC(=O)Cn1cc2c(n1)CCC(C)C2` (stereo not drawn) gave an RP-LC retention time of 948 s.

`Cn1cccc1C(=O)C(=O)Nc1cccc(Br)c1` had an RP-LC retention time of 1040 s.

For the compound `COc1ccccc1NC(=O)Cn1c2ccccc2n2c(=O)cc(-c3ccc(F)cc3)nc12`, the RP-LC retention time amounted to 1010 s.

`O=C(NCC1(c2nc(-c3ccccc3)cs2)CCOCC1)c1cccc(-c2noc(C(F)(F)F)n2)c1` displayed an RP-LC retention time of 1310 s.

In turn, `CCOc1ccc2ncc(C(=O)c3ccccc3)c(N3CCN(C)CC3)c2c1` registered an RP-LC retention time of 527 s.

For the compound `COc1ccc(-n2c(=O)n(C)c(=O)c3cc(C(=O)NCc4ccco4)cnc32)cc1`, the RP-LC retention time was 764 s.

As for `Cc1cc(C)n(-c2c(C)c(C)nc3c(-c4ccccc4)cnn23)n1`, the RP-LC retention time came out at 947 s.

Compound `Cc1cc(C)c(C)c(S(=O)(=O)Nc2ccc3c(c2)OCO3)c1C` yielded an RP-LC retention time of 915 s.

In the case of `c1ccc(-c2nc(CSc3ccc(-n4ccnc4)nn3)cs2)cc1`, the RP-LC retention time amounted to 636 s.

As for `Cc1cc2nn(CC(=O)NC(C)C)c(=O)n2c(-c2ccc(C(F)(F)F)cc2)n1`, the RP-LC retention time turned out to be 576 s.

Compound `CNC(=O)c1ccc(-c2nc3cc(NS(=O)(=O)c4cc(F)ccc4F)ccc3n2C)cc1` showed an RP-LC retention time of 637 s.

As to `O=C(NCc1cc(F)ccc1F)C1CCN(c2cncnc2N2CCOCC2)CC1`, the RP-LC retention time was determined as 619 s.

As for `Cc1ccc(S(=O)(=O)N2CCC(C(=O)NCc3csc(-c4ccccc4)n3)CC2)c(C)c1`, the RP-LC retention time turned out to be 996 s.

`CC(=O)Nc1cccc(-c2nc(-c3cccc(-c4ccn[nH]4)c3)no2)c1` yielded an RP-LC retention time of 763 s.

As to `O=C(CSc1ccc(N2CCOCC2)nn1)Nc1ccc(Cl)cc1`, the RP-LC retention time was 725 s.

With `COCCC1CCN(C(=O)CN(C)C(=O)c2ccc3cc[nH]c3c2)CC1`, the RP-LC retention time was 686 s.

On to `COc1ccc(CC2C(=O)Nc3ccccc32)cc1Cl` (stereo not drawn), for which the RP-LC retention time amounted to 832 s.

Regarding `Cc1nn2c(N3CCN(c4ccccn4)CC3)c3c(nc2c1-c1ccccc1)CCC3`, the RP-LC retention time was 720 s.

Take `CC(C)CCNC(=O)c1ccc2c(c1)nc1n2CCN(C2CCCCC2)C1=O`: the RP-LC retention time is 815 s.

As to `COc1ccc(NS(=O)(=O)c2cc(-c3[nH]ncc3C(=O)N(C)C)oc2C)cc1Cl`, the RP-LC retention time worked out at 699 s.

Take `Cc1cc(=O)n(CC(=O)Nc2ccc(Cl)cc2)c(N2CCCCC2)n1`: the RP-LC retention time is 708 s.

`CC(C)c1cccc(NC(=O)Cn2ncc3c(c2=O)N(C2CC2)C(=O)CS3)c1`: the RP-LC retention time came out at 812 s.

For the compound `C=CCN1CC(c2nc3ccccc3n2CC(O)COc2cccc(C)c2)CC1=O` (stereo not drawn), the RP-LC retention time is 721 s.

Compound `COc1ccc(CCC(=O)N2CCC3(CC2)C(=O)N(C)c2ccccc23)cc1` came in with an RP-LC retention time of 867 s.

As for `Cc1ccc2c(c1)C1CC(C)(O2)N(c2cccc(C(=O)NCc3ccccn3)c2)C(=O)N1` (stereo not drawn), the RP-LC retention time was determined as 646 s.

Compound `CCN1C=C(C(=O)OCc2ccc(C)cc2)C(C)=NS1(=O)=O` had an RP-LC retention time of 1030 s.

In turn, `COc1ccc(S(=O)(=O)Nc2cc(-c3cn4ccc(C)cc4n3)ccc2C)cc1` displayed an RP-LC retention time of 662 s.

Regarding `CCc1noc(NC(C)=O)c1-c1ccc(OC)c(S(=O)(=O)Nc2cc(C)ccc2C)c1`, the RP-LC retention time stood at 846 s.

For `COc1ccc(-c2nn3c(N4CCN(c5ccccn5)CC4)cc(C)nc3c2C)cc1`, the RP-LC retention time stood at 615 s.

On to `CC1CCN(S(=O)(=O)N2CCC(C(=O)N3CCCC(c4nc(C5CCOCC5)no4)C3)CC2)CC1` (stereo not drawn), for which the RP-LC retention time amounted to 878 s.

Consider `CCOc1ccc(C2Cn3nnc(-c4nc(-c5cccnc5)no4)c3CO2)cc1` (stereo not drawn), for which the RP-LC retention time worked out at 982 s.

In turn, `Cc1ccc(C(C)NC(=O)C2CCN(c3nccnc3Oc3cccc(C)c3)CC2)cc1` (stereo not drawn) came in with an RP-LC retention time of 1070 s.

`Cc1nn(C(C)C(=O)NC2CCCCC2)c(=O)c2nn(-c3ccccc3)c(C)c12` (stereo not drawn): the RP-LC retention time came out at 879 s.

For `Cc1ccc(CN2CCCN(c3ncccc3-c3nc(C(C)C)no3)CC2)cc1`, the RP-LC retention time turned out to be 746 s.

(Values after the METLIN SMRT retention time set (Domingo-Almenara et al. 2019).)
